# Experimental data published in US20240358693A1, “METHODS OF TREATING PAIN” (Aisa Pharma, Inc., priority 2023, published 2024).
# System: participants with SSc-RP
# Test: Adverse events and serious adverse events (safety, tolerability)
# Format: in vivo
# Description: An AE is any event, side effect, or other untoward medical occurrence that occurs in conjunction with the use of a medicinal product in humans, whether or not considered to have a causal relationship to this treatment.
# Severity of AEs will be graded by the Investigator as one of: • Mild (Grade 1): A type of AE that is usually transient and may require only minimal treatment or therapeutic intervention.
# An SAE is an AE occurring during any study phase (i.e., baseline, treatment, washout, or follow-up), and at any dose of the study drug (active or placebo), that fulfills one or more of the following: • Results in death • It is immediately life-threatening • It requires in participant hospitalization or prolongation of existing hospitalization • It results in persistent or significant disability or incapacity • Results in a congenital abnormality or birth defect • It is an important medical event that may jeopardize the participant or may require medical intervention to prevent one of the outcomes listed above.
# Treatment-emergent AEs (TEAEs) are defined as AEs that occur or worsen after the dose of study drug. If the timing of the start of an AE could not be determined unambiguously from the start or end dates provided, it will be assumed to be a TEAE. An AE is considered related if the relationship to either of the study drug has been indicated as possibly or probably or definite related by the investigator. An AE leading to study withdrawal is defined as an AE that cause a subject early terminated from the study. AEs will be identified as emerging in the following parts: • TEAEs for Part A will be those that started during Part A (i.e., from the first dose in Part A to end of follow up of Part A). • TEAEs for Part B will be those that started during Part B (i.e., from the first dose in Part B to end of follow-up of Part B).
# Adverse events were coded using the most current version of the MedDRA® Version 22.0 or higher. The analysis of AEs was based on the concept of treatment emergent AEs. Treatment emergent AEs were tabulated by treatment group and included the number of participants for whom the event occurred, the severity, and relationship to study drug. Treatment emergent AEs (TEAEs) leading to discontinuation and SAEs with onset after the start of study drug were also summarized. All AEs and SAEs (including those with onset or worsening before the start of study drug) through the end of the study were listed.
Structure (SMILES),"Safety: number of AE (Cilnidipine 20 mg, HA-mild, n = 8)","Safety: withdrawals (Cilnidipine 20 mg, n = 8)","Safety: number of AE (Pooled Cilnidipine, in combo with T, n = 9)","Safety: withdrawals (Pooled Cilnidipine, n = 9)",incidence of Adverse Events / overall adverse event rate (all patients who received any dose of cilnidipine (n=17)),"tolerability (cilnidipine 10 mg and 20 mg, alone or in combination with tadalafil)",severity grade of adverse events reported (patients treated with cilnidipine),Safety: grade of Adverse Events (AEs) (summary of data (Table S)),Safety: treatment D/Cs (discontinuations) (summary of data (Table S)),Safety: worst AE by group (in vivo)
"COCCOC(=O)C1=C(C)NC(C)=C(C(=O)OC/C=C/c2ccccc2)C1c1cccc([N+](=O)[O-])c1 (stereo not shown) [Cilnidipine, cilnidipine]",1AE (HA-mild; 1,1AE (HA-mild; 1,1AE (in combo with T);,no withdrawals,17%,well tolerated,only mild (Grade 1),Grade 1 Adverse,No treatment D/Cs,–
"CN1CC(=O)N2[C@H](c3ccc4c(c3)OCO4)c3[nH]c4ccccc4c3C[C@@H]2C1=O [Tadalafil, tadalafil]",–,–,–,–,–,–,–,–,–,Worst AE in tadalafil
